Experimental data: US20240199587A1, “HETEROCYCLIC COMPOUNDS” (Hoffmann-La Roche Inc., priority 2021, published 2024)

Target: T1, MAGL (Homo sapiens, UniProt Q99685)
T1 sequence (Q99685 1-303): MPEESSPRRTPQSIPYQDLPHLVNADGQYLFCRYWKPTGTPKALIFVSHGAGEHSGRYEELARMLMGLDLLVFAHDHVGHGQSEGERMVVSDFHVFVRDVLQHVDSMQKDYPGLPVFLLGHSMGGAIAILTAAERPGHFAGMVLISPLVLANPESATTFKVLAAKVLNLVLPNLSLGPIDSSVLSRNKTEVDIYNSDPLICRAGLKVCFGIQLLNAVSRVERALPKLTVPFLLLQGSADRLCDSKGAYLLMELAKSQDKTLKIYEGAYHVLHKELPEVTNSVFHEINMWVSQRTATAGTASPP
Assay: 2-AG assay (MAGL inhibitory activity, hydrolysis of 2-arachidonoylglycerol to arachidonic acid followed by mass spectrometry)
Format: biochemical
Conditions: 8 μM 2-arachidonoylglycerol, 15 min pre-incubation, 30 min incubation at RT, RapidFire MS readout
Outline: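 Arachidonic acid released from 8 μM 2-arachidonoylglycerol was quantified by online SPE triple-quadrupole MS (negative ESI, 303.1→259.1), normalised to d8-arachidonic acid internal standard. Reaction ran 30 min at RT after 15 min RT compound pre-incubation with […] MAGL in TRIS/EDTA/Tween-20 buffer, 2.5% DMSO.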

| SMILES | IC50 [nM] |
| --- | --- |
| CS(=O)(=O)c1cc(O[C@H]2C[C@@H]3CN(C(=O)N4CC5(CC(n6cnc(C7CC7)n6)C5)C4)C[C@@H]3C2)ccc1F [Example 130, [6-(3-cyclopropyl-1,2,4-triazol-1-yl)-2-azaspiro[3.3]heptan-2-yl]-[rac-(3aS,6aR)-5-(4-fluoro-3-methylsulfonyl-phenoxy)-3,3a,4,5,6,6a-hexahydro-1H-cyclopenta[c]pyrrol-2-yl]methanone] | 47.6 |
| O=C(N1CC2(CC(NS(=O)(=O)c3cccc(C(F)(F)F)c3)C2)C1)N1CC2(CC(n3cnc(C4CC4)n3)C2)C1 [Example 195, N-[2-[6-(3-cyclopropyl-1,2,4-triazol-1-yl)-2-azaspiro[3.3]heptane-2-carbonyl]-2-azaspiro[3.3]heptan-6-yl]-3-(trifluoromethyl)benzen esulfonamide] | 0.4 |
| O=C(N1CC(Oc2ccc(C3CC3)nn2)C1)N1CC2(CC(n3cnc(C4CC4)n3)C2)C1 [Example 280, [3-(6-cyclopropylpyridazin-3-yl)oxyazetidin-1-yl]-[6-(3-cyclopropyl-1,2,4-triazol-1-yl)-2-azaspiro[3.3]heptan-2-yl]methanone] | 39.4 |
| CS(=O)(=O)c1cccc(CN2CC3(C2)CN(C(=O)N2CC4(CC(n5cnc(C6CC6)n5)C4)C2)C3)c1 [Example 501, [6-(3-cyclopropyl-1,2,4-triazol-1-yl)-2-azaspiro[3.3]heptan-2-yl]-[6-[(3-methylsulfonylphenyl)methyl]-2,6-diazaspiro[3.3]heptan-2-yl]methanone] | 6.74 |
| CC(C)(C)c1nc(-c2ccc(C(=O)N3CC4(CC(n5ccc(C(F)(F)F)n5)C4)C3)cc2)no1 [Example 5, [4-(5-tert-butyl-1,2,4-oxadiazol-3-yl)phenyl]-[6-[3-(trifluoromethyl)pyrazol-1-yl]-2-azaspiro[3.3]heptan-2-yl]methanone] | 85.9 |
| N#Cc1cc(F)ccc1O[C@H]1C[C@@H]2CN(C(=O)N3CC4(CC(n5cnc(C6CC6)n5)C4)C3)C[C@@H]2C1 [Example 129, 5-fluoro-2-[[rac-(3aS,6aR)-2-[6-(3-cyclopropyl-1,2,4-triazol-1-yl)-2-azaspiro[3.3]heptane-2-carbonyl]-3,3a,4,5,6,6a-hexahydro-1H-cyclopenta[c]pyrrol-5-yl]oxy]benzonitrile] | 72.2 |
| O=C(N1CC(Oc2cc(C(F)(F)F)ncn2)C1)N1CC2(CC(n3cnc(C4CC4)n3)C2)C1 [Example 285, [6-(3-cyclopropyl-1,2,4-triazol-1-yl)-2-azaspiro[3.3]heptan-2-yl]-[3-[6-(trifluoromethyl)pyrimidin-4-yl]oxyazetidin-1-yl]methanone] | 54.3 |
| CC(C)(C)c1nc(C23CC(C(=O)N4CC5(CC(n6cnc(C7CC7)c6)C5)C4)(C2)C3)no1 [Example 162, [3-(5-tert-butyl-1,2,4-oxadiazol-3-yl)-1-bicyclo[1.1.1]pentanyl]-[6-(4-cyclopropylimidazol-1-yl)-2-azaspiro[3.3]heptan-2-yl]methanone] | 475 |
| O=C(N1C[C@H]2C[C@H](Oc3ccc(C(F)(F)F)cc3)C[C@H]2C1)N1CC2(CC(n3cnc(C4CC4)n3)C2)C1 [Example 113, [6-(3-cyclopropyl-1,2,4-triazol-1-yl)-2-azaspiro[3.3]heptan-2-yl]-[rac-(3aS,6aR)-5-[4-(trifluoromethyl)phenoxy]-3,3a,4,5,6,6a-hexahydro-1H-cyclopenta[c]pyrrol-2-yl]methanone] | 4.8 |
| O=C(N1CC(c2ccc(-c3ccc(Cl)cc3Cl)cn2)C1)N1CC2(CC(c3ccc(C(F)(F)F)nc3)C2)C1 [Example 537, [3-[5-(2,4-dichlorophenyl)-2-pyridyl]azetidin-1-yl]-[6-[6-(trifluoromethyl)-3-pyridyl]-2-azaspiro[3.3]heptan-2-yl]methanone] | 80.3 |
| O=C(N1CC2(CC(Oc3ccc(C(F)(F)F)nc3)C2)C1)N1CC2(CC(c3ccc(C(F)(F)F)nc3)C2)C1 [Example 525, [6-[6-(trifluoromethyl)-3-pyridyl]-2-azaspiro[3.3]heptan-2-yl]-[6-[[6-(trifluoromethyl)-3-pyridyl]oxy]-2-azaspiro[3.3]heptan-2-yl]methanone] | 698 |
| Nc1ncc(S(=O)(=O)N2CC3(CN(C(=O)N4CC5(CC(n6cnc(C7CC7)n6)C5)C4)C3)C2)cn1 [Example 310, [2-(2-aminopyrimidin-5-yl)sulfonyl-2,6-diazaspiro[3.3]heptan-6-yl]-[6-(3-cyclopropyl-1,2,4-triazol-1-yl)-2-azaspiro[3.3]heptan-2-yl]methanone] | 154 |
| CS(=O)(=O)c1cccc(CC2CC3(C2)CN(C(=O)N2CC4(CC(n5cnc(C6(O)CC6)n5)C4)C2)C3)c1 [Example 490, [6-[3-(1-hydroxycyclopropyl)-1,2,4-triazol-1-yl]-2-azaspiro[3.3]heptan-2-yl]-[6-[(3-methylsulfonylphenyl)methyl]-2-azaspiro[3.3]heptan-2-yl]methanone] | 6.69 |
| O=C(N1CC(c2ccc(NCC3(C(F)(F)F)CC3)cn2)C1)N1CC2(CC(n3cnc(C4CC4)n3)C2)C1 [Example 478, [6-(3-cyclopropyl-1,2,4-triazol-1-yl)-2-azaspiro[3.3]heptan-2-yl]-[3-[5-[[1-(trifluoromethyl)cyclopropyl]methylamino]-2-pyridyl]azetidin-1-yl]methanone] | 0.74 |
| O=C(N1CC(c2ccc(C3(C(F)(F)F)CC3)cc2)C1)N1CC2(CC(n3cnc(C4CC4)n3)C2)C1 [Example 1, (6-(3-cyclopropyl-1H-1,2,4-triazol-1-yl)-2-azaspiro[3.3]heptan-2-yl)(3-(4-(1-(trifluoromethyl)cyclopropyl)phenyl)azetidin-1-yl)methanone] | 0.1 |
| CC(C)(C)c1nc(-c2ccc(C(=O)N3CC4(CC(n5cnc(C(F)(F)F)n5)C4)C3)cc2)no1 [Example 4, (4-(5-(tert-butyl)-1,2,4-oxadiazol-3-yl)phenyl)(6-(3-(trifluoromethyl)-1H-1,2,4-triazol-1-yl)-2-azaspiro[3.3]heptan-2-yl)methanone] | 11.4 |
| CC(C)(C)n1cc(-c2ccc(C(=O)N3CC4(CC(n5cnc(Cl)n5)C4)C3)cc2)cn1 [Example 170, [4-(1-tert-butylpyrazol-4-yl)phenyl]-[6-(3-chloro-1,2,4-triazol-1-yl)-2-azaspiro[3.3]heptan-2-yl]methanone] | 286 |
| O=C(N1CC(Oc2ccnc(C3CC3)n2)C1)N1CC2(CC(n3cnc(C4CC4)n3)C2)C1 [Example 274, [3-(2-cyclopropylpyrimidin-4-yl)oxyazetidin-1-yl]-[6-(3-cyclopropyl-1,2,4-triazol-1-yl)-2-azaspiro[3.3]heptan-2-yl]methanone] | 34.8 |
| Cc1cc(C(=O)N2CC3(CC(n4cnc(Cl)n4)C3)C2)cnc1OCC1(C(F)(F)F)CC1 [Example 174, [6-(3-chloro-1,2,4-triazol-1-yl)-2-azaspiro[3.3]heptan-2-yl]-[5-methyl-6-[[1-(trifluoromethyl)cyclopropyl]methoxy]-3-pyridyl]methanone] | 183 |
| O=C(N1CC(Oc2ccc(C(F)(F)F)nn2)C1)N1CC2(CC(n3cnc(C4CC4)n3)C2)C1 [Example 248, [6-(3-cyclopropyl-1,2,4-triazol-1-yl)-2-azaspiro[3.3]heptan-2-yl]−[3-[6-(trifluoromethyl)pyridazin-3-yl]oxyazetidin-1-yl]methanone] | 13.4 |
| CS(=N)(=O)c1ccc(CC2CC3(C2)CN(C(=O)N2CC4(CC(n5cnc(C(F)(F)F)n5)C4)C2)C3)cc1 (stereo not shown) [Example 430, [6-[[4-(methylsulfonimidoyl)phenyl]methyl]-2-azaspiro[3.3]heptan-2-yl]-[6-[3-(trifluoromethyl)-1,2,4-triazol-1-yl]-2-azaspiro[3.3]heptan-2-yl]methanone] | 17.2 |
| O=C(N1CC(C23CC(CNC4(C(F)(F)F)CC4)(C2)C3)C1)N1CC2(CC(n3cnc(C4CC4)n3)C2)C1 [Example 444, [6-(3-cyclopropyl-1,2,4-triazol-1-yl)-2-azaspiro[3.3]heptan-2-yl]-[3-[3-[[[1-(trifluoromethyl)cyclopropyl]amino]methyl]-1-bicyclo[1.1.1]pentanyl]azetidin-1-yl]methanone] | 0.05 |
| COc1cc(F)ccc1O[C@H]1C[C@@H]2CN(C(=O)N3CC4(CC(n5cnc(C6CC6)n5)C4)C3)C[C@@H]2C1 [Example 122, [6-(3-cyclopropyl-1,2,4-triazol-1-yl)-2-azaspiro[3.3]heptan-2-yl]-[rac-(3aS,6aR)-5-(4-fluoro-2-methoxy-phenoxy)-3,3a,4,5,6,6a-hexahydro-1H-cyclopenta[c]pyrrol-2-yl]methanone] | 7.3 |
| O=C(N1CC(C23CC(c4nnc(CC(F)(F)F)o4)(C2)C3)C1)N1CC2(CC(n3cnc(C4CC4)n3)C2)C1 [Example 435, [6-(3-cyclopropyl-1,2,4-triazol-1-yl)-2-azaspiro[3.3]heptan-2-yl]-[3-[3-[5-(2,2,2-trifluoroethyl)-1,3,4-oxadiazol-2-yl]-1-bicyclo[1.1.1]pentanyl]azetidin-1-yl]methanone] | 7.69 |
| O=C(N1CCC([C@@H](c2ccc(F)cc2)c2nc(C3CC3)no2)CC1)N1CC2(CC(n3cnc(C4CC4)n3)C2)C1 [Example 227, [4-[(S)-(3-cyclopropyl-1,2,4-oxadiazol-5-yl)-(4-fluorophenyl)methyl]-1-piperidyl]-[6-(3-cyclopropyl-1,2,4-triazol-1-yl)-2-azaspiro[3.3]heptan-2-yl]methanone] | 3.8 |
